The term IC50 denotes the concentration needed to halve the response being measured. The term AC50 denotes the midpoint of the concentration-response curve, whichever way the signal moves. In general, EC50 refers to the concentration needed to bring the measured effect to its halfway point.

Consider eight compounds from ChEMBL document CHEMBL1201862, “PubChem BioAssay data set” (2004).

Structures are written as SMILES. Active and inactive are the calls of the source.

The nature of assay [1]: cytotoxicity toward HCT116 cells – cell-based, CellTiter-Glo luminescence, IC50, dose response (AID 1117332). The format is functional. To be noted: HCT-116.
Assay [2] in a line: RKO cell viability reduction, dose response, CellTiter-Glo luminescence (AID 1117322). Format: functional. (In general: Cellular ATP, detected with luciferase, serves as a proxy for viable cell number.)
The nature of assay [3]: CellTiter-Glo luminescence survival assay, SW480 colon tumor line, concentration-response curve, half-maximal inhibitory concentration (AID 1117338). Format: functional.
The nature of assay [4]: cytotoxicity toward HT-29 cells – cell-based, CellTiter-Glo luminescence, IC50, dose response (AID 1117330). The format is functional.
Assay [5] in a line: Reduced DLD-1 viability, concentration-response, CellTiter-Glo luminescence (AID 1117352). Format: functional.
The nature of assay [6]: rise of 2N DNA cells, HeLa – IC50, dose response (AID 1117349). Format: functional, cell-based.
Assay [7] can be described thus: cytotoxicity toward Colo320 cells – cell-based, CellTiter-Glo luminescence, IC50, dose response (AID 1117334). The note with it: COLO 320. The format is functional.
Assay [8] can be described thus: SNU-C1 cell viability reduction, dose response, CellTiter-Glo luminescence (AID 1117323). Format: functional, cell-based.
Assay [9] is described as follows: rise of 4N DNA cells, HeLa – IC50, dose response (AID 1117351). Format: functional, cell-based.
A short description of assay [10]: HCT116 cell viability decrease, GSK3B pretreatment – CellTiter-Glo, IC50, dose response (AID 1117339). To be noted: HCT-116. The format is functional.
Assay [11] in a line: P. falciparum Dd2 growth inhibitors, dose response, SYBR Green, cherry-picked samples (AID 1159567). Format: functional, cell-based.
Assay [12] in a line: toxicity to human hepatoma HepG2 cells – cell-based, cherry-picked samples, cytotoxicity control, dose response (AID 1159577). The format is functional.
The nature of assay [13]: viability inhibitors of stage V gametocytes – luminescence, dose response (AID 1117278).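 Further: gametocytes exposed to compound for 24 hours.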 Format: functional, cell-based.
Assay [14] in a line: viability loss in human Jurkat cells – cell-based, luminescence, cytotoxicity control for P. falciparum gametocyte viability project, dose response (AID 1117277).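 Further: potency reflects loss of cellular ATP meaning fewer viable cells.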 The format is functional.
The target in assay [15] is Mitogen-activated protein kinase 10 (Homo sapiens, UniProt P53779). The experiment in a line: Dose response biochemical screening assay for inhibitors of c-Jun N-Terminal Kinase 3 (JNK3). [Related pubchem assays: 746 ].
Sequence of Mitogen-activated protein kinase 10 (P53779 whole entry): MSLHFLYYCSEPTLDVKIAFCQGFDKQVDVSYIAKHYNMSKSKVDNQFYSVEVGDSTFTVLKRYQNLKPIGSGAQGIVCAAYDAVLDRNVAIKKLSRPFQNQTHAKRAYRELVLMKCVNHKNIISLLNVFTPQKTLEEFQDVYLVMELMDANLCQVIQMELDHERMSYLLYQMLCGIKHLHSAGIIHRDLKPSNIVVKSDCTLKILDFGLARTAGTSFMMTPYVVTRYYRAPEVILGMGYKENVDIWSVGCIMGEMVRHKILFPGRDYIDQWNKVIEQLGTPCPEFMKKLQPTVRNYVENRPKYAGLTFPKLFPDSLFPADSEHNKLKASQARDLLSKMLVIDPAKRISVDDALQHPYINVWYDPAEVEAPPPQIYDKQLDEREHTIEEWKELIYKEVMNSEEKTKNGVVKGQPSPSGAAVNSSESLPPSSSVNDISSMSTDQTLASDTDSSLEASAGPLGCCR
The target in assay [16] is T1, Heat shock factor protein 1 (Mus musculus, UniProt P38532).
T1 sequence (P38532 whole entry): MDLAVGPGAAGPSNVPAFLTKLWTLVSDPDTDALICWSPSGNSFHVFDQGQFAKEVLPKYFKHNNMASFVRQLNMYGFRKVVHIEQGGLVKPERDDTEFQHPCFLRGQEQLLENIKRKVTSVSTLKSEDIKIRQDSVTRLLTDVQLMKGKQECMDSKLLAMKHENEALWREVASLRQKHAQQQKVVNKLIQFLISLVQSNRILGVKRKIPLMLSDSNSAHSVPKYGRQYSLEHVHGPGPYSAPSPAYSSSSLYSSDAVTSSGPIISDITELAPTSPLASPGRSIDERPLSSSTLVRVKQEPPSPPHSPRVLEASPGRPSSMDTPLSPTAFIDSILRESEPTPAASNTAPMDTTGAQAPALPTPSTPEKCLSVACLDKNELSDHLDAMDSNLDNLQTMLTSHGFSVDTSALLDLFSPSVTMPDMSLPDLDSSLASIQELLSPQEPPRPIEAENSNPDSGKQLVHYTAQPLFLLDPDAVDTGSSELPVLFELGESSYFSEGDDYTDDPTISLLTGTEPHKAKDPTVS
The experiment in a line: enhancement of HSF1-driven luciferase signal – cell-based, NIH3T3, luminescence, dose retest, confirmation (AID 435004).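 Further: stress induced by proteasome inhibitor MG132 added 30 min after compound; luciferase reporter driven by HSF1 response element in NIH3T3 cells; actives raise luminescence as potentiators of the MG132 stress response.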 Format: functional.

Assay [17] concerns the target T2, Methionyl-tRNA synthetase, putative (Trypanosoma brucei brucei, UniProt Q38C91).
T2 sequence (Q38C91 whole entry): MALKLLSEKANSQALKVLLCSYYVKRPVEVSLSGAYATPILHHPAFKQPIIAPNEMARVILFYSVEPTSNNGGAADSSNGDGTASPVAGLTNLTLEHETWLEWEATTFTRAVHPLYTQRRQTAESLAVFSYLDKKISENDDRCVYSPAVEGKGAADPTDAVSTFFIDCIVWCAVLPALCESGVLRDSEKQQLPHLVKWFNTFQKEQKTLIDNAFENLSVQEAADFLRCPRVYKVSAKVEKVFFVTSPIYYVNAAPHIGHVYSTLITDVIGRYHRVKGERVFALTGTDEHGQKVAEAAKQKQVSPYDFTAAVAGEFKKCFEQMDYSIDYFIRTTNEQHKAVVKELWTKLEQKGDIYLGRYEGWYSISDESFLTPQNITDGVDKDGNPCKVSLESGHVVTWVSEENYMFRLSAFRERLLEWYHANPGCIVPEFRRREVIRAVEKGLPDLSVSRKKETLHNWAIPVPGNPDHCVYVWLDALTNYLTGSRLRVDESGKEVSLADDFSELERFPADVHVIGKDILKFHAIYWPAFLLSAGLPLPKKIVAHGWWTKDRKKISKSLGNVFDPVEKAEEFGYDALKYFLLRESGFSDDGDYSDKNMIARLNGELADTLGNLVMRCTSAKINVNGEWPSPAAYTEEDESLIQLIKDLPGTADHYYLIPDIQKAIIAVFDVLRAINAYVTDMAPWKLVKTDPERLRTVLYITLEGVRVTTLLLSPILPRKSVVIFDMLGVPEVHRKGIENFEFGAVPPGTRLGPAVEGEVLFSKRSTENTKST
Format: functional, Trypanosoma brucei brucei strain 927/4 GUTat10.1.

Assay [18] can be described thus: Late stage counterscreen for inhibitors of Trypanosoma brucei methionyl tRNA synthetase (MetRS): Luminescence-based cell-based high throughput dose response assay to identify compounds that are cytotoxic to Jurkat human T lymphocyte cells. The format is functional.
The target of assay [19] is T2, Methionyl-tRNA synthetase, putative. The format is functional, Trypanosoma brucei brucei strain 927/4 GUTat10.1. The source holds these as a separate data set.
Assay [20] is described as follows: Counterscreen for inhibitors of Trypanosoma brucei methionyl tRNA synthetase (MetRS): Luminescence-based cell-based high throughput dose response assay to identify compounds that are cytotoxic to Jurkat human T lymphocyte cells. Format: functional. In general terms: The purpose of a counterscreen is to sort out artefacts and off-target activity.
A short description of assay [21]: reduced cellular PGC1a acetyl-lysine signal – cell-based, cherry-picked samples, dose response (AID 720514).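 Further: potency may reflect raised or lowered acetylation signal.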 Format: functional.
Assay [22] can be described thus: growth inhibition of PfATP4-mutant resistant parasites – NITD609-resistant line, SYBR Green, dry powder, dose response (AID 1159571).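 Further: parasites synchronized at ring stage by sorbitol before testing.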 Format: functional, cell-based.
Assay [23] can be described thus: growth inhibition of yeast DHODH-expressing 3D7 parasites – SYBR Green, dry powder samples, dose response (AID 1159570).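 Further: parasite growth measured after 72 hours of compound exposure.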 Format: functional, cell-based.
A short description of assay [24]: Dd2 malaria parasite growth inhibition potency – SYBR Green, dry powder samples, dose response (AID 1159566).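 Further: potency for growth inhibition with lower SYBR green DNA signal.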 Format: functional, cell-based.
The nature of assay [25]: toxicity to human HepG2 hepatoma cells – cell-based, plate reader, dry powder samples, cytotoxicity control, dose response (AID 1159569).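 Further: inhibitor potency with signal falling toward the positive control level.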 The format is functional.
The target in assay [26] is Large T antigen (Simian virus 40, UniProt P03070). Format: functional, Betapolyomavirus macacae.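 Further: Confirmatory-stage PubChem screen for compounds that inhibit SV40 T antigen.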
Sequence of Large T antigen (P03070 whole entry): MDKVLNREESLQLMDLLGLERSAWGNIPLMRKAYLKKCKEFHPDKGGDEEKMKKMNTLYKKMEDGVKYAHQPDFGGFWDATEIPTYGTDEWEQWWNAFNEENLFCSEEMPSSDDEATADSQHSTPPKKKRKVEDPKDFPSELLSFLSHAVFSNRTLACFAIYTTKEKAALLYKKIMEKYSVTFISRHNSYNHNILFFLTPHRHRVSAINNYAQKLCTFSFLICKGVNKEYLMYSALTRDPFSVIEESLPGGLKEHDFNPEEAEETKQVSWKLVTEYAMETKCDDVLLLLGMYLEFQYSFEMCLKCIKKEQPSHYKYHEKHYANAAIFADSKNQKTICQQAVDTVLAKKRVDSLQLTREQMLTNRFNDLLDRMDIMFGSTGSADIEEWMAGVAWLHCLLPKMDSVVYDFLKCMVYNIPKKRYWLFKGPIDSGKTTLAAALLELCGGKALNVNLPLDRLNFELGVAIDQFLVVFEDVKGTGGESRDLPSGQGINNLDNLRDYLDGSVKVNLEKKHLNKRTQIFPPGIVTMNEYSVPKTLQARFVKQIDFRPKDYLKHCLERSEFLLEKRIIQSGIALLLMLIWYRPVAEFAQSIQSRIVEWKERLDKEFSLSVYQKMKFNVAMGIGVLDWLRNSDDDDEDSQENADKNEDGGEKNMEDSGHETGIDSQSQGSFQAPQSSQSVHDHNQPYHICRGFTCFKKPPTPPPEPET
Assay [27] deals with DNA dC->dU-editing enzyme APOBEC-3G (Homo sapiens, UniProt Q9HC16). The assay can be described thus: Dose Response confirmation of small molecule APOBEC3G DNA Deaminase Inhibitors via a fluorescence-based single-stranded DNA deaminase assay. [Related pubchem assays (depositor defined):AID493012, AID493028]. Format: functional.
Sequence of DNA dC->dU-editing enzyme APOBEC-3G (Q9HC16 whole entry): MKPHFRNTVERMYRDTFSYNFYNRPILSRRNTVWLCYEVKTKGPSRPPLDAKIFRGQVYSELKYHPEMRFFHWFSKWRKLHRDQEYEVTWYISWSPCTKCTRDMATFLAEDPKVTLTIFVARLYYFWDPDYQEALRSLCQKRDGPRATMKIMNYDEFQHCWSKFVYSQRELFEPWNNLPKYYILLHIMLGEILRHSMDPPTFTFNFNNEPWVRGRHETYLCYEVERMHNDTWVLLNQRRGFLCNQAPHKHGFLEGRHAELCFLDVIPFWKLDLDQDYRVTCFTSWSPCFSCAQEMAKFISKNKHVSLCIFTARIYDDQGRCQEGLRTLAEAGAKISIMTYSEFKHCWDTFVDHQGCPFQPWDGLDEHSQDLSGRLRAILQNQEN
Assay [28] addresses Eukaryotic translation initiation factor 4E (Mus musculus, UniProt P63073). The experiment in a line: blockers of eIF4G binding by eIF4E – biochemical, TR-FRET, dose response (AID 855).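 Further: potency for disrupting eIF4E binding to eIF4GI seen as loss of FRET.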 The format is functional. (In general: In TR-FRET formats the signal depends on donor and acceptor labels being close together.)
The target of assay [29] is Mannose-6-phosphate isomerase (Homo sapiens, UniProt P34949). The assay can be described thus: MPI inhibition at elevated mannose 6-phosphate – biochemical, fluorescence intensity, high mannose 6-phosphate, primary screen (AID 1220).
Sequence of Mannose-6-phosphate isomerase (P34949 whole entry): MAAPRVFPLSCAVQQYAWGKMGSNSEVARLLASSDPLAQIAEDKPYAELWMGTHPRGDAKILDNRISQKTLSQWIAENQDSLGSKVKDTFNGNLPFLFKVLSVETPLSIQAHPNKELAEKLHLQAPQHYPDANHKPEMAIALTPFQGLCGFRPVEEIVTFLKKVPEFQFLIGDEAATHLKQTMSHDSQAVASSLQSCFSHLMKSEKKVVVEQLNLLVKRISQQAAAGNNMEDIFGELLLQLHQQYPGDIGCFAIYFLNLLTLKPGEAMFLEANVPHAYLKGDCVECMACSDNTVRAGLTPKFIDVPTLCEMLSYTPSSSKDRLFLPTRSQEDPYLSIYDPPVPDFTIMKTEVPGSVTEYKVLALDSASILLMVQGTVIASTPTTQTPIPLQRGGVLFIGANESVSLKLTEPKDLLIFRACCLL

Sequence of Eukaryotic translation initiation factor 4E (P63073 whole entry): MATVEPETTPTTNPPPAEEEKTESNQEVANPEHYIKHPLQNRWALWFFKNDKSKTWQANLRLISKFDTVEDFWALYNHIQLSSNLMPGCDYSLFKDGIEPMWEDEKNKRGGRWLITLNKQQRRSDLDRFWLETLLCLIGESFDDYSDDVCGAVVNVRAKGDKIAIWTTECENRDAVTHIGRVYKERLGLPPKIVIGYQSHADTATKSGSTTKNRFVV

Regarding `O=C(O)c1ccc(-n2nc(-c3ccccc3O)nc2-c2ccccc2O)cc1` [DEFERASIROX], the IC50 in assay [1] was 0.438 µM (active); in [2] it was 0.1 µM (active); in [3] it was 0.0776 µM (active); in assay [4], 0.516 µM (active); in [5] it was 0.651 µM (active); in assay [6], > 10 µM (inactive). Besides, the half-inhibitory concentration (IC50) in assay [7] is 0.409 µM (active); in assay [8], 0.233 µM (active); in [9] it was > 10 µM (inactive); in assay [10] it was 0.242 µM (active).
As for `COc1ccccc1CN1C[C@@H]2N[C@H](C1)[C@@H]2c1ccc(-c2ccccc2OC)cc1`, the AC50 in assay [11] is 4.29 µM (active); in assay [12], 11.6 µM (active).
On to `COc1ccc(-n2c(-c3ccco3)nc3c(cnn3-c3ccccc3C)c2=O)cc1`, for which the IC50 in assay [13] was > 109 µM (inactive); in assay [14], > 83.3 µM (inactive).
Regarding `O=C(CCCCCn1c(=S)[nH]c2ccccc2c1=O)N1CCC2(CC1)OCCO2`, the concentration for half-maximal inhibition (IC50) in assay [15] is on record as 29.7 µM (not active).
For the compound `O=C(NCCc1nc2ccccc2[nH]1)c1ccc(Cl)c([N+](=O)[O-])c1`, the EC50 in assay [16] was > 260 µM (inactive). Besides, the IC50 in [17] was 0.221 µM (active); in assay [18], > 83.3 µM (inactive); in assay [19], 0.17 µM (active); in assay [20], 44.4 µM (inactive).
Regarding `Cc1nc(O)c(C(=O)/C=C/c2ccccc2)c2c1CCCC2`, the AC50 in [21] was 8.12 µM (active).
For the compound `O=C(c1ccc2c(c1)OCO2)N1CC(=O)N2[C@H](CO)[C@H](c3ccc(C#Cc4ccccc4)cc3)[C@H]2C1`, the AC50 is 1.93 µM (active) in assay [22]; 5.73 µM (active) in [23]; 1.68 µM (active) in assay [24]; 25 µM (active) in [25]; 2.52 µM (active) in assay [11]; 26.3 µM (active) in assay [12].
As to `CC(C)(O)C1Cc2cc(/C=C/C(=O)O)c(O)cc2O1` (stereo unspecified), the IC50 is 38.3 µM (active) in [26], 38.2 µM (active) in assay [27], 30.4 µM (active) in assay [28] and 8.63 µM (active) in assay [29].
